Assay [1] has as its target T1, Androgen receptor (Homo sapiens, UniProt P10275).
T1 sequence (P10275 whole entry): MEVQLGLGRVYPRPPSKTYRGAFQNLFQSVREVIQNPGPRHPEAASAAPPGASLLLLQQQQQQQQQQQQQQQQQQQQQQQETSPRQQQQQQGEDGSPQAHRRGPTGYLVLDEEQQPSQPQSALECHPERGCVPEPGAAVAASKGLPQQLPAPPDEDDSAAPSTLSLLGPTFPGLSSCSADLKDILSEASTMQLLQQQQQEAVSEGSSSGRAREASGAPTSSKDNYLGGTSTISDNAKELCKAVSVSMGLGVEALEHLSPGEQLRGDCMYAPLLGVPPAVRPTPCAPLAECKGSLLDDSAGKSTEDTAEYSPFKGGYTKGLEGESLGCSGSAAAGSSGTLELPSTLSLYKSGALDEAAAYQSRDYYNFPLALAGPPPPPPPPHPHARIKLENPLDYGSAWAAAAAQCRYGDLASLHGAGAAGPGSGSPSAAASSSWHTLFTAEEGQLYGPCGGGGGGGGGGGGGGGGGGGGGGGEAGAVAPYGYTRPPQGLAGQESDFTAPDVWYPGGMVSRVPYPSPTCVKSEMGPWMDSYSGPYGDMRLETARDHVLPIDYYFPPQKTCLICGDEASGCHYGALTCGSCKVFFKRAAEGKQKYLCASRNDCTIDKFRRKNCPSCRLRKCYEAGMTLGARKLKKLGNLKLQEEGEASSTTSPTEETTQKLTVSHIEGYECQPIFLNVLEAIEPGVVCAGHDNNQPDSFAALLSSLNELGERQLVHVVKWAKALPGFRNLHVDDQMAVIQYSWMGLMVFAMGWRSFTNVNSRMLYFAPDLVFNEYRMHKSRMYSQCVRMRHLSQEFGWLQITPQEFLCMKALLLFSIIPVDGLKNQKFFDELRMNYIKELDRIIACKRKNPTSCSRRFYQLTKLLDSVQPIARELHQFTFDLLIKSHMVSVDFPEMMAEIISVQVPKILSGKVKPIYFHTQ
The experiment in a line: Binding affinity against human androgen receptor (hAR) in competitive binding assay; NB means No binding.

Assay [2] concerns the target T1, Androgen receptor. The experiment in a line: Binding affinity against human androgen receptor (hAR) in competitive binding assay.

A word on the Ki: it is a measure of affinity in units of concentration, obtained from inhibition or displacement. Read a low Ki as a stronger hold on the target.

For the compound `C[C@@]1(C(=O)Nc2ccc([N+](=O)[O-])c(C(F)(F)F)c2)CO1`, on Androgen receptor [1], the Ki result is “Not Active”.
With `C[C@](O)(CBr)C(=O)Nc1ccc(N)c(C(F)(F)F)c1`, affinity on Androgen receptor [2] was put at a Ki of 80.9 nM.

(Values after ChEMBL document CHEMBL1134484, “Homology modeling using multiple molecular dynamics simulations and docking studies of the human androgen receptor ligand binding domain bound to testosterone and nonsteroidal ligands” (J Med Chem, 2001).)
